Measurements reported in patent US20250296971A1, “GASTRIC INHIBITORY PEPTIDE RECEPTOR LIGANDS” (priority 2021, published 2025).
Where two headings read alike, the source gives them in different places. *1 amine or outer side, *2 acyl side, *3 side chain or, on linkers, in order; H or OH if unused. Where a SMILES comes first, the peptide text is derived from it. Bridges are numbered along the chain shown (N, C = ends). Side-chain parts run from the residue outwards. [ ]: non-standard residue; d: D form. The star is where a group is joined. X11 = O=C(CN1CCN2CCN3CCN(CC1)CC(=O)[O][In]([O]C(=O)C2)[O]C(=O)C3)NCCCOCCOCCOCCCN*; X3 = O=C(O)CN1CCN(CC(=O)O)CCN(CC(=O)NCCCOCCOCCOCCCN*)CCN(CC(=O)O)CC1; NH(1-deoxy-D-glucityl) = OC[C@@H](O)[C@@H](O)[C@H](O)[C@@H](O)CN*; DOTA = O=C(O)CN1CCN(CC(=O)O)CCN(CC(=O)*)CCN(CC(=O)O)CC1; Trp(5-Br) = N[C@@H](Cc1c[nH]c2ccc(Br)cc12)C(=O)O; Trp(5-Cl) = N[C@@H](Cc1c[nH]c2ccc(Cl)cc12)C(=O)O; Pyridine(2,6-diCH2) = c1cc(C[*:1])nc(C[*:2])c1; Pro(4R-NH2) = N[C@H]1CN[C@H](C(=O)O)C1; Glutaryl = O=C(CCCC(=O)[*:2])[*:1]; X7 = c1cc(CSCCN[*:2])cc(C[*:1])c1; Hyp = O=C(O)[C@@H]1C[C@@H](O)CN1; X1 = O=C(CN1CCC(N[*:1])CC1)[*:2]; Suc = O=C(CCC(=O)[*:2])[*:1]; hLeu = CC(C)CC[C@H](N)C(=O)O; Api = NC1(C(=O)O)CCNCC1; Thp = NC1(C(=O)O)CCOCC1; AEEA = NCCOCCOCC(=O)O; Aib = CC(C)(N)C(=O)O

Biological target: T1, GIPR (CHO-K1-hGIPR cells) (Homo sapiens, UniProt P48546)
T1 construct: host or cells: CHO-K1
T1 sequence (P48546 22-466): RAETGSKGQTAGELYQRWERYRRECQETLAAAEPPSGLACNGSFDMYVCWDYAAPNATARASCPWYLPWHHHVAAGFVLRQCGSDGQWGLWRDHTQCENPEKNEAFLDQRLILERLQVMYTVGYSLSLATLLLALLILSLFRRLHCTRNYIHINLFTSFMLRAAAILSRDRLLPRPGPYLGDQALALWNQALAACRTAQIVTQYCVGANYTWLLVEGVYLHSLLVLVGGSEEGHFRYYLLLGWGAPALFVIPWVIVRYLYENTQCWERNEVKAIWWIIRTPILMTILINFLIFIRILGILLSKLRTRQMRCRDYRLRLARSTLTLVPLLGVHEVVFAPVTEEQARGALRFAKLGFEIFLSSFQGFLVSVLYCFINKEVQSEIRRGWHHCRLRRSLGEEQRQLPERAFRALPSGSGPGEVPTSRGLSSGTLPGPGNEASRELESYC
Test: FACS binding assay
Conditions: competition with 20 nM GIP-057, 4° C., 1 hour
Method in brief: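 CHO-K1 cells stably expressing human GIPR were detached with Accutase, suspended at 500.000 cells per mL in PBS with 1% FCS, and washed ice-cold. Bound peptide was detected with 1 μg/mL APC-streptavidin for 30 min on ice.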

[1] = read-out: pIC50 Category (converted)

Row | IC50 [1] | SMILES | IC50 (pIC50 Category)
1 | < 0.01 µM | CC[C@H](C)[C@@H]1NC(=O)[C@H](CC(C)C)NC(=O)C2(CCN(C(=O)CCCC(=O)NC[C@H](O)[C@@H](O)[C@H](O)[C@H](O)CO)CC2)NC(=O)[C@@H](NC(=O)[C@@H](CC(C)C)NC(=O)[C@H](CCC(=O)O)NC(=O)[C@@H]2C[C@@H](N)CN2C(=O)[C@H](Cc2c[nH]c3ccc(Cl)cc23)NC(=O)[C@H](Cc2c[nH]c3ccccc23)NC(=O)[C@H](CC(=O)O)NC(=O)COCCOCCNC(=O)[C@@H](CCC(=O)NC[C@H](O)[C@@H](O)[C@H](O)[C@H](O)CO)NC(=O)CN2CCN(CC(=O)O)CCN(CC(=O)O)CCN(CC(=O)O)CC2)CSCc2cccc(n2)CSC[C@@H](C(=O)NC2CCN(CC(=O)N[C@H](CCC(=O)NC[C@H](O)[C@@H](O)[C@H](O)[C@H](O)CO)C(N)=O)CC2)NC1=O [GIP-009, DOTA-glu(AGLU)-O2Oc-Asp-Trp-5Clw-Tap-Glu-leu-[Cys(2Lut)-Apc(AGLU-Glutar)-Leu-Ile-Cys]-APAc-glu(AGLU)-NH2] ({DOTA}-[dE](NH(1-deoxy-D-glucityl))[AEEA]DW[Trp(5-Cl)][Pro(4R-NH2)]E[dL]C[Api]([Glutaryl-NH(1-deoxy-D-glucityl)])LIC[X1][dE](NH(1-deoxy-D-glucityl))-NH2; linker 9-13 via Pyridine(2,6-diCH2)) | 
2 |  | CC[C@H](C)[C@@H]1NC(=O)[C@H](CC(C)C)NC(=O)C2(CCN(C(=O)CN3CCN(CC(=O)O)CCN(CC(=O)O)CCN(CC(=O)O)CC3)CC2)NC(=O)[C@@H](NC(=O)[C@@H](CC(C)C)NC(=O)[C@H](CCC(=O)O)NC(=O)[C@@H]2C[C@@H](N)CN2C(=O)[C@H](Cc2c[nH]c3ccc(Br)cc23)NC(=O)[C@H](Cc2c[nH]c3ccccc23)NC(=O)[C@H](CC(=O)O)NC(=O)CN2CCC(NC(=O)CCCC(=O)NC[C@H](O)[C@@H](O)[C@H](O)[C@H](O)CO)CC2)CSCc2cccc(n2)CSC[C@@H](C(=O)NC2CCN(CC(=O)N[C@H](CCC(=O)NC[C@H](O)[C@@H](O)[C@H](O)[C@H](O)CO)C(N)=O)CC2)NC1=O [GIP-014, AGLU-Glutar-APAc-Asp-Trp-5Brw-Tap-Glu-leu-[Cys(2Lut)-Apc(DOTA)-Leu-Ile-Cys]-APAc-glu(AGLU)-NH2] ({NH(1-deoxy-D-glucityl)-Glutaryl}-[X1]DW[Trp(5-Br)][Pro(4R-NH2)]E[dL]C[Api](DOTA)LIC[X1][dE](NH(1-deoxy-D-glucityl))-NH2; linker 8-12 via Pyridine(2,6-diCH2)) | < 0.01 µM
3 | < 0.01 µM | CC[C@H](C)[C@@H]1NC(=O)[C@H](CCC(C)C)NC(=O)C(C)(C)NC(=O)[C@@H](NC(=O)[C@@H](CC(C)C)NC(=O)[C@H](CCC(=O)O)NC(=O)[C@@H]2CCCN2C(=O)[C@H](Cc2c[nH]c3ccc(Cl)cc23)NC(=O)[C@H](Cc2c[nH]c3ccccc23)NC(=O)[C@H](CC(=O)O)NC(=O)CCC(=O)NCCCOCCOCCOCCCNC(=O)CN2CCN(CC(=O)O)CCN(CC(=O)O)CCN(CC(=O)O)CC2)CSCc2cccc(c2)CSCCNC1=O [GIP-099, DOTA-Ttds-Asp-Trp-5Clw-Pro-Glu-leu-[Cys(3MeBn)-Aib-Hle-Ile-AET]] ({X3-Suc}-DW[Trp(5-Cl)]PE[dL]C[Aib][hLeu]I; linker 7-C via X7) | 
4 | < 0.01 µM | CC[C@H](C)[C@@H]1NC(=O)[C@H]([C@@H](C)CC)NC(=O)C2(CCOCC2)NC(=O)[C@@H](NC(=O)[C@@H](CC(C)C)NC(=O)[C@H](CCC(=O)O)NC(=O)[C@@H]2C[C@@H](O)CN2C(=O)[C@H](Cc2c[nH]c3ccc(Cl)cc23)NC(=O)[C@H](Cc2c[nH]c3ccccc23)NC(=O)[C@H](CC(=O)O)NC(C)=O)CSCc2cccc(n2)CSC[C@@H](C(N)=O)NC1=O [GIP-229, Ac-Asp-Trp-5Clw-Hyp-Glu-leu-[Cys(2Lut)-Thp-Ile-Ile-Cys]-NH2] (Ac-DW[Trp(5-Cl)][Hyp]E[dL]C[Thp]IIC-NH2; linker 7-11 via Pyridine(2,6-diCH2)) | 

Row | SMILES | IC50 [1] | IC50 (pIC50 Category)
5 | CC[C@H](C)[C@@H]1NC(=O)[C@H](CC(C)C)NC(=O)C2(CCOCC2)NC(=O)[C@@H](NC(=O)[C@@H](CC(C)C)NC(=O)[C@H](CCC(=O)O)NC(=O)[C@@H]2CCCN2C(=O)[C@H](Cc2c[nH]c3ccc(Cl)cc23)NC(=O)[C@H](Cc2c[nH]c3ccccc23)NC(=O)[C@H](CC(=O)O)NC(=O)CCC(=O)NCCCOCCOCCOCCCNC(=O)CN2CCN3CCN4CCN(CC2)CC(=O)[O][In]([O]C(=O)C3)[O]C(=O)C4)CSCc2cccc(c2)CSCCNC1=O [GIP-150, InDOTA-Ttds-Asp-Trp-5Clw-Pro-Glu-leu-[Cys(3MeBn)-Thp-Leu-Ile-AET]] ({X11-Suc}-DW[Trp(5-Cl)]PE[dL]C[Thp]LI; linker 7-C via X7) | < 0.01 µM | 
